In brackets after ≈: the same amount, converted by molar mass.
Assays:
[1] = test system: Staphylococcus aureus ATCC 29213; experiment: Broth microdilution MIC/MBC; settings: ATCC29213
[2] = test system: Staphylococcus epidermidis ATCC 12228; experiment: Broth microdilution MIC/MBC; settings: ATCC12228
L929 cell line = experiment: MTT cytotoxicity assay; type: cell-based, mouse
Description: (§1) Among all the newly synthesized compounds, four compounds designated as: 14, 20, 21 and 27 were selected for further testing of their cytotoxic properties at the doses of 10, 25, 50, 75 and 100 µM. The cytotoxic properties of the above compounds were tested on the cancer cell lines, i.e., A549 (ECACC 86012804) (non-small-cell lung cancer), T47D (ECACC 85102201) (breast cancer), HeLa (ATCC® CCL-2™) (cervical cancer) and normal line L929 (NCTC clone 929, ATCC® CCL-1™) (mouse fibroblasts) using the MTT test for 24- and 48 h cultures.
(§2) A549 (ECACC 86012804) (non-small-cell lung cancer) and T47D (ECACC 85102201) (breast cancer) were obtained from ECACC and propagated in Dulbecco’s Minimal Essential Medium, supplemented with 2 mM of glutamine, antibiotics ([…] streptomycin, 1% of 100 U/L penicillin) and 10% Fetal Bovine Serum. HeLa (ATCC® CCL-2™) (cervical cancer) and L929 (NCTC clone 929, ATCC® CCL-1™) (mouse fibroblasts) cell lines were obtained from ATCC and propagated in the Eagle Minimal Essential Medium supplemented with antibiotics ([…] streptomycin, 1% of 100 U/L penicillin) and with 10% and 5% FBS, respectively. The cell line was routinely grown in 75 cm^2 tissue culture flasks and kept in an incubator (humidified atmosphere of 5% CO2 at 37 °C). All examined cell lines were tested against mycoplasma contamination with microbiological assays.
(§3) The cell viability of tested compounds (14, 20, 21 and 27) was assessed by the MTT assay. In brief, the exponentially growing cells were plated in 100 μL/well in 96-well plates. After 24 h culturing, the cells were treated with different concentrations of compounds (range 10–100 μM). After 24 and 48 h of incubation, 10 μL of 5 mg/mL MTT was added to each well and the plates were incubated at 37 °C for additional 4 h. The medium was subsequently removed, the purple-colored precipitates of formazan were dissolved in 100 μL of DMSO. The color absorbance was recorded at 570 nm using a BioTek model EPOCH ELISA plate reader. All experiments were performed in triplicate. The absorbance values were in the range of linearity of the Lambert–Beer law.

[3] = test system: Micrococcus luteus ATCC 10240; experiment: Broth microdilution MIC/MBC; settings: Micrococcus luteus, ATCC10240
[4] = test system: Bacillus cereus ATCC 10876; experiment: Broth microdilution MIC/MBC; settings: Bacillus cereus, ATCC10876
[5] = test system: Staphylococcus aureus ATCC 43300; experiment: Broth microdilution MIC/MBC; settings: ATCC43300 / MRSA
A549 cell line = experiment: MTT cytotoxicity assay; type: cell-based
Description: as §1, §2, §3

T47D cell line = experiment: MTT cytotoxicity assay; type: cell-based
Description: as §1, §2, §3

HeLa cell line = experiment: MTT cytotoxicity assay; type: cell-based
Description: as §1, §2, §3

[6] = test system: Salmonella typhimurium ATCC 14028; experiment: Broth microdilution MIC/MBC

In the case of `O=C(N/N=C/c1cc(Cl)cc(I)c1O)c1cccc(I)c1` [Compound 20, N-[(5-chloro-2-hydroxy-3-iodophenyl)methylidene]-3-iodobenzohydrazide], the MBC [1] is reported as 3.91 µg/mL (≈ 7.43 µM), the MIC [1] is reported as 3.91 µg/mL (≈ 7.43 µM) and the MBC [2] is reported as 7.81 µg/mL (≈ 14.8 µM). The MIC [2] was 1.95 µg/mL (≈ 3.7 µM), the cell proliferation (L929 cell line; L929, 24h, 10 µM, Repeat No 1) was 99% and the cell proliferation (L929 cell line; L929, 24h, 10 µM, Repeat No 2) was 104%. For the same compound, the cell proliferation (L929 cell line; L929, 24h, 25 µM, Repeat No 1) was 89%, the cell proliferation (L929 cell line; L929, 24h, 25 µM, Repeat No 2) was 95% and the cell proliferation (L929 cell line; L929, 24h, 50 µM, Repeat No 1) was 87%. It also gave a cell proliferation (L929 cell line; L929, 24h, 50 µM, Repeat No 2) of 112%, a cell proliferation (L929 cell line; L929, 24h, 75 µM, Repeat No 1) of 103% and a cell proliferation (L929 cell line; L929, 24h, 75 µM, Repeat No 2) of 96%. The cell proliferation (L929 cell line; L929, 24h, 100 µM, Repeat No 1) was 86%, the cell proliferation (L929 cell line; L929, 24h, 100 µM, Repeat No 2) was 94% and the cytotoxicity (L929 cell line; L929, 24 h culture, tested doses 10–100 µM) was “approximately 20%”. The cell proliferation (L929 cell line; L929, 48h, 10 µM, Repeat No 1) was 91%, the cell proliferation (L929 cell line; L929, 48h, 10 µM, Repeat No 2) was 102% and the cell proliferation (L929 cell line; L929, 48h, 25 µM, Repeat No 1) was 88%. The cell proliferation (L929 cell line; L929, 48h, 25 µM, Repeat No 2) was 93%, the cell proliferation (L929 cell line; L929, 48h, 50 µM, Repeat No 1) was 94% and the cell proliferation (L929 cell line; L929, 48h, 50 µM, Repeat No 2) was 99%. For the same compound, the cell proliferation (L929 cell line; L929, 48h, 75 µM, Repeat No 1) was 94%, the cell proliferation (L929 cell line; L929, 48h, 75 µM, Repeat No 2) was 99% and the cell proliferation (L929 cell line; L929, 48h, 100 µM, Repeat No 1) was 87%. For the same compound, the cell proliferation (L929 cell line; L929, 48h, 100 µM, Repeat No 2) was 84%, the MBC [3] was 7.81 µg/mL (≈ 14.8 µM) and the MIC [3] was 1.95 µg/mL (≈ 3.7 µM). The MBC [4] was 31.2 µg/mL (≈ 59.4 µM), the MIC [4] was 7.81 µg/mL (≈ 14.8 µM) and the MBC [5] was 7.81 µg/mL (≈ 14.8 µM). It also gave an MIC [5] of 3.91 µg/mL (≈ 7.43 µM), a cell proliferation (A549 cell line; A549, 24h, 10 µM, Repeat No 1) of 87% and a cell proliferation (A549 cell line; A549, 24h, 10 µM, Repeat No 2) of 92%. For the same compound, the cell proliferation (A549 cell line; A549, 24h, 25 µM, Repeat No 1) was 83%, the cell proliferation (A549 cell line; A549, 24h, 25 µM, Repeat No 2) was 91% and the cell proliferation (A549 cell line; A549, 24h, 50 µM, Repeat No 1) was 83%. It also gave a cell proliferation (A549 cell line; A549, 24h, 50 µM, Repeat No 2) of 87%, a cell proliferation (A549 cell line; A549, 24h, 75 µM, Repeat No 1) of 91% and a cell proliferation (A549 cell line; A549, 24h, 75 µM, Repeat No 2) of 95%. For the same compound, the cell proliferation (A549 cell line; A549, 24h, 100 µM, Repeat No 1) was 90%, the cell proliferation (A549 cell line; A549, 24h, 100 µM, Repeat No 2) was 93% and the cell proliferation (A549 cell line; A549, 48h, 10 µM, Repeat No 1) was 88%. For the same compound, the cell proliferation (A549 cell line; A549, 48h, 10 µM, Repeat No 2) was 84%, the cell proliferation (A549 cell line; A549, 48h, 25 µM, Repeat No 1) was 79% and the cell proliferation (A549 cell line; A549, 48h, 25 µM, Repeat No 2) was 83%. The cell proliferation (A549 cell line; A549, 48h, 50 µM, Repeat No 1) was 88%, the cell proliferation (A549 cell line; A549, 48h, 50 µM, Repeat No 2) was 92% and the cell proliferation (A549 cell line; A549, 48h, 75 µM, Repeat No 1) was 99%. It also gave a cell proliferation (A549 cell line; A549, 48h, 75 µM, Repeat No 2) of 95%, a cell proliferation (A549 cell line; A549, 48h, 100 µM, Repeat No 1) of 91% and a cell proliferation (A549 cell line; A549, 48h, 100 µM, Repeat No 2) of 93%. For the same compound, the cell proliferation (T47D cell line; 24h, 10 µM, Repeat No 1) was 78%, the cell proliferation (T47D cell line; 24h, 10 µM, Repeat No 2) was 81% and the cell proliferation (T47D cell line; 24h, 25 µM, Repeat No 1) was 76%. For the same compound, the cell proliferation (T47D cell line; 24h, 25 µM, Repeat No 2) was 72%, the cell proliferation (T47D cell line; 24h, 50 µM, Repeat No 1) was 77% and the cell proliferation (T47D cell line; 24h, 50 µM, Repeat No 2) was 69%. It also gave a cell proliferation (T47D cell line; 24h, 75 µM, Repeat No 1) of 77%, a cell proliferation (T47D cell line; 24h, 75 µM, Repeat No 2) of 73% and a cell proliferation (T47D cell line; 24h, 100 µM, Repeat No 1) of 87%. For the same compound, the cell proliferation (T47D cell line; 24h, 100 µM, Repeat No 2) was 82%, the cell proliferation (T47D cell line; 48h, 10 µM, Repeat No 1) was 80% and the cell proliferation (T47D cell line; 48h, 10 µM, Repeat No 2) was 78%. It also gave a cell proliferation (T47D cell line; 48h, 25 µM, Repeat No 1) of 79%, a cell proliferation (T47D cell line; 48h, 25 µM, Repeat No 2) of 75% and a cell proliferation (T47D cell line; 48h, 50 µM, Repeat No 1) of 76%. It also gave a cell proliferation (T47D cell line; 48h, 50 µM, Repeat No 2) of 73%, a cell proliferation (T47D cell line; 48h, 75 µM, Repeat No 1) of 83% and a cell proliferation (T47D cell line; 48h, 75 µM, Repeat No 2) of 86%. For the same compound, the cell proliferation (T47D cell line; 48h, 100 µM, Repeat No 1) was 81%, the cell proliferation (T47D cell line; 48h, 100 µM, Repeat No 2) was 79% and the cell proliferation (HeLa cell line; 24h, 10 µM, Repeat No 1) was 87%. It also gave a cell proliferation (HeLa cell line; 24h, 10 µM, Repeat No 2) of 92%, a cell proliferation (HeLa cell line; 24h, 25 µM, Repeat No 1) of 81% and a cell proliferation (HeLa cell line; 24h, 25 µM, Repeat No 2) of 88%. For the same compound, the cell proliferation (HeLa cell line; 24h, 50 µM, Repeat No 1) was 78%, the cell proliferation (HeLa cell line; 24h, 50 µM, Repeat No 2) was 83% and the cell proliferation (HeLa cell line; 24h, 75 µM, Repeat No 1) was 85%. For the same compound, the cell proliferation (HeLa cell line; 24h, 75 µM, Repeat No 2) was 91%, the cell proliferation (HeLa cell line; 24h, 100 µM, Repeat No 1) was 81% and the cell proliferation (HeLa cell line; 24h, 100 µM, Repeat No 2) was 79%. It also gave a cell proliferation (HeLa cell line; 48h, 10 µM, Repeat No 1) of 88%, a cell proliferation (HeLa cell line; 48h, 10 µM, Repeat No 2) of 91% and a cell proliferation (HeLa cell line; 48h, 25 µM, Repeat No 1) of 73%. It also gave a cell proliferation (HeLa cell line; 48h, 25 µM, Repeat No 2) of 75%, a cell proliferation (HeLa cell line; 48h, 50 µM, Repeat No 1) of 87% and a cell proliferation (HeLa cell line; 48h, 50 µM, Repeat No 2) of 91%. It also gave a cell proliferation (HeLa cell line; 48h, 75 µM, Repeat No 1) of 99%, a cell proliferation (HeLa cell line; 48h, 75 µM, Repeat No 2) of 96% and a cell proliferation (HeLa cell line; 48h, 100 µM, Repeat No 1) of 93%. For the same compound, the cell proliferation (HeLa cell line; 48h, 100 µM, Repeat No 2) was 94%, the MBC ([6]; Salmonella enterica) was > 1000 µg/mL and the MIC ([6]; Salmonella enterica) was 1000 µg/mL (≈ 1900 µM). The MBC/MIC ([6]; Salmonella typhimurium ATCC 14028) was > 1.

Reference: publication PMC11356900, “Synthesis, Structural Properties and Biological Activities of Novel Hydrazones of 2-, 3-, 4-Iodobenzoic Acid” (Molecules, 2024)
